Test results: patent US20250179024A1, “AMYLOID AND ASSOCIATED PATHOLOGY MODULATORS AND METHODS THEREOF” (Jawaharlal Nehru Centre for Advanced Scientific Research, priority 2022, published 2025)

Experiments:
[1] = target: T1, preformed Aβ fibrillar aggregates (Homo sapiens, UniProt P05067); test: Dot blot assay of dissolution of preformed Aβ fibrillar aggregates; format: biochemical; settings: Aβ aggregates 10 μM; for dissolution efficiency: NMIs 20 μM, 48 h
T1 construct: is a 42 amino acid proteolytic product from the amyloid precursor protein; purchased Invitrogen
Description: Aggregation modulation by toxic Aβ aggregates were assessed and were quantified by dot blot assay. Aβ peptide (10 μM) was dissolved in phosphate buffered saline (PBS, 10 mM, pH 7.4), incubated alone and with NMIs (20 μM) at 37° C. for 48 h. For concentration dependent inhibition, 10 μM Aβ peptide was incubated with 1, 2, 5, 10 and 20 μM of NMIs and incubated. Samples for oligomer inhibition studies were prepared by incubating Aβ alone and with NMIs at 4° C. for 24 and subjected to dot blot analysis. For dissolution studies, Aβ peptide alone was incubated in PBS for 48 h to prepare fibrils and then incubated with NMIs further for 48 h. For dot blot experiment, 5 μL of sample was blotted on activated PVDF (polyvinylidene fluoride) membrane in triplicates and air dried. The membrane was blocked with skimmed milk powder for 1 h at room temperature. The blot paper was washed with tris-buffered saline with 0.01% Tween 20 (TBST) three times for 5 min. Blot paper was treated with fibril specific OC primary antibody (Rabbit, 1:1000 dilution) overnight at 4° C. For oligomers blot A11 anti-oligomer antibody (Rabbit 1:1000) was used. Blot was washed thrice with TBST and treated with HRP-conjugated antirabbit secondary antibody (1:5000 dilutions) for 1 h at room temperature. The bolt was washed thrice for 5 min with TBST and developed with ECL reagent (Biorad) and imaged with ChemiDoc BioRad gel documentation system in autoexposure mode. Blots were analyzed and quantified by ImageJ software. The fibrillar aggregates were formed by incubating Aβ peptide (10 μM) in PBS (pH 7.4) at 37° C. for 48 h. The aggregate samples were treated with NMIs (20 μM) for 48 h followed by dot blot analysis. […] These studies confirmed that M3 as the potential candidate to dissolve Aβ fibrillar aggregates to possibly nontoxic species.

[2] = target: T2, Aβ42 (Homo sapiens, UniProt P05067); test: Native PAGE and western blot of Aβ aggregated species; format: biochemical; settings: NMIs 20 μM; for size distribution of Aβ aggregated species, aggregation inhibition: Aβ 10 μM, FIGS. 1B and 2B; for LMW and HMW Aβ aggregates, dissolution samples: Aβ aggregates 10 μM, FIG. 4B
T2 construct: is a 42 amino acid proteolytic product from the amyloid precursor protein; purchased Invitrogen
Description: The samples were prepared by incubating Aβ42 with specific concentration of NMI compounds of present disclosure and metal ions for 48 h and then subjected to 6% native polyacrylamide gel electrophoresis (Native-PAGE) in tris-glycine buffer. The lower molecular weight aggregates permeabilized through the gel and resolved in the gel. Higher molecular aggregates stuck in the upper part of wells and potentially carried in gel. Then the protein was transferred to PVDF membrane for 4 h at cold condition maintained using ice cold transfer buffer and immersing the transfer apparatus in ice. Then the blots were continued similar to dot blots. […] It has been observed that the oligomers are a highly toxic species compared to Aβ fibrillar aggregates. The ability of NMIs (M3) to inhibit the formation of Aβ oligomers was assessed by dot blot assay. Aβ peptide (10 μM) was incubated with NMIs at 4° C. for 24 h followed by probing with A11 oligomer-specific antibody. […] Native PAGE and western blot analysis was carried out to understand the size distribution of Aβ aggregated species. […] In order to analyse the higher order aggregates not permeable in the gel matrix and the morphological characteristics, Aβ samples were subjected to atomic force microscopy (AFM) imaging.

[3] = target: T3, Aβ (Homo sapiens, UniProt P05067); test: AFM imaging of Aβ samples; settings: for morphology of Aβ sample, aggregation inhibition: Aβ 10 μM, FIG. 1C
T3 construct: is a 42 amino acid proteolytic product from the amyloid precursor protein; purchased Invitrogen
Description: AFM imaging was done to understand the morphological characteristics of Aβ and NMI treated samples. The samples from Aβ aggregation inhibition and dissolution studies were used for AFM imaging. 25 μL of sample was drop-casted on freshly cleaved mica substrate. The Aβ samples were allowed to adhere to substrate surface for 15 min, washed with filtered MiliQ water and air dried. The samples were imaged in Scan assist Air mode in Bioscope resolve AFM system (Bruker). The images were processed and analyzed using NanoScope analysis software. […] It has been observed that the oligomers are a highly toxic species compared to Aβ fibrillar aggregates. The ability of NMIs (M3) to inhibit the formation of Aβ oligomers was assessed by dot blot assay. Aβ peptide (10 μM) was incubated with NMIs at 4° C. for 24 h followed by probing with A11 oligomer-specific antibody. […] Native PAGE and western blot analysis was carried out to understand the size distribution of Aβ aggregated species. […] In order to analyse the higher order aggregates not permeable in the gel matrix and the morphological characteristics, Aβ samples were subjected to atomic force microscopy (AFM) imaging.

[4] = target: T4, Aβ in the presence of Cu (II) (Homo sapiens, UniProt P05067); test: Cu-dependent Aβ aggregation, native PAGE and western blot; format: biochemical; settings: Aβ 10 μM, Cu (II) 20 μM, NMIs 20 μM, 37° C., 48 h
T4 construct: is a 42 amino acid proteolytic product from the amyloid precursor protein; purchased Invitrogen
Description: The samples were prepared by incubating Aβ42 with specific concentration of NMI compounds of present disclosure and metal ions for 48 h and then subjected to 6% native polyacrylamide gel electrophoresis (Native-PAGE) in tris-glycine buffer. The lower molecular weight aggregates permeabilized through the gel and resolved in the gel. Higher molecular aggregates stuck in the upper part of wells and potentially carried in gel. Then the protein was transferred to PVDF membrane for 4 h at cold condition maintained using ice cold transfer buffer and immersing the transfer apparatus in ice. Then the blots were continued similar to dot blots.
The absorbance and fluorescence spectroscopy studies together with mass spectrometry data confirmed the selective Cu (II) or Zn (II) chelation property of M1 and M3. […] Aβ (10 μM) was incubated in the presence of Cu (II) or Zn (II) (20 μM) with NMIs at 37° C. for 48 h and the samples were subjected to native PAGE and western blot analysis. […] Modulation of Zn-dependent Aβ aggregation by M4 was attributed to its two Zn (II) chelation centres. M3 with dopamine and DPA moieties effectively modulated both Cu (II) and Zn (II)-dependent Aβ aggregation. The effect of NMIs on the morphological outcome of metal-dependent Aβ aggregation was visualized by AFM imaging (FIGS. 1E and 1F). Aβ in the presence of Cu (II) and Zn (II) formed dense and thick fibrils.

T3 sequence (P05067 672-713 limits assumed): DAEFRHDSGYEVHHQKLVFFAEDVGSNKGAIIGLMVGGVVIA
T1 sequence (P05067 672-713 limits assumed): as above
T2 sequence (P05067 672-713 limits assumed): as above
T4 sequence (P05067 672-713 limits assumed): as above

SMILES | dissolution efficiency [1] | size distribution of Aβ aggregated species, aggregation inhibition [2] | LMW and HMW Aβ aggregates, dissolution samples [2] | morphology of Aβ sample, aggregation inhibition ([3]; NMIs 20 μM) | formation of Aβ aggregates in the presence of Cu (II) [4] | EC50 [1] | dissolution ([1]; 0.1 molar ratio) | dissolution ([1]; 0.2 molar ratio) | dissolution ([1]; 0.5 molar ratio) | dissolution ([1]; 1 molar ratio) | dissolution ([1]; 2 molar ratio) | morphology of metal-dependent Aβ aggregation ([3]; Aβ 10 μM with Cu (II) or Zn (II), NMIs 20 μM, FIGS. 1E and 1F) | morphology of preformed fibrils after treatment ([3]; Aβ aggregates 10 μM, FIG. 4C)
CN(C)c1ccc2c3c(cccc13)C(=O)N(CCc1ccc(O)c(O)c1)C2=O [M1, 2-(3,4-dihydroxyphenethyl)-6-(dimethylamino)-1H-benzo[de]isoquinoline-1,3(2H)-dione] | ~44% | reduction of different Aβ species | effectively inhibited the formation of LMW and HMW Aβ aggregates | amorphous structures | reduced the formation of aggregates |  |  |  |  |  |  |  | 
O=C1c2cccc3c(N(Cc4ccccn4)Cc4ccccn4)ccc(c23)C(=O)N1CCc1ccc(O)c(O)c1 [M3, 6-(bis(pyridin-2-ylmethyl)amino)-2-(3,4-dihydroxyphenethyl)-1H-benzo[de]isoquinoline-1,3(2H)-dione] | 52% | reduction of different Aβ species | effectively inhibited the formation of LMW and HMW Aβ aggregates | amorphous structures | reduced the formation of aggregates | 7.87 µM | 25% | 46% | 48% | 50% | 59% | minimal Aβ fibrils and mostly small amorphous clumps | amorphous clumps
